Source: EP4566600A1, “AFFECTIVE DISORDER AMELIORATING AGENT” (National University Corporation Kobe University, priority 2022, dated 2024)

Columns and labels:
[1] = target: T1, GFP-PKCγ (Homo sapiens, UniProt P05129); assay: PKCγ activity inhibitory action in TPA-treated COS7 cells expressing GFP-PKCγ (Western blotting for PKCγ and phosphorylated PKCγ); type: cell-based; conditions: treated with TPA and flavonoid, n=2 (Fig. 5)
T1 construct: expressed in transfected cells; host or cells: COS7 cells, electroporation, 48 h
Protocol: The PKCγ activity inhibitory action of various flavonoids was tested. Scutellarin (Scu), baicalin (Bai), luteolin (Lut), and apigenin (Api) were used as various flavonoids. A plasmid encoding GFP-PKCγ was introduced into COS7 cells by electroporation and cultured for 48 hours to express GFP-PKCγ. After treating the cells with TPA (12-O-Tetradecanoylphorbol-13-acetate, activator of PKCγ) and each flavonoid, the cells were ground and proteins were subjected to SDS-PAGE. Thereafter, Western blotting was performed for PKCγ and phosphorylated PKCγ (activated form).

[2] = test system: affective disorder model mice (DGKβKO mice); assay: elevated plus maze test (affective disorder evaluation system 1); type: in vivo; conditions: relative to that in the case of taking placebo; male affective disorder model mice aged 8-11 weeks, drinking water containing 600 mg/L of lithium for 10 consecutive days
Protocol: Mice in which DGKβ was knocked out (DGKβKO mice) were prepared as an affective disorder (mania) model. This model mice are not associated with dementia.
An elevated plus maze test was used. In an elevated plus maze, a passage with a wall (closed arm) and a passage without a wall (open arm) crossed each other in a cross shape, and normal mice (WT) were afraid of the open arm and stayed in the closed arm for a long time, while affective disorder model mice were less likely to feel anxiety and stayed in the open arm for a long time. Based on this, the ratio of the residence time in the open arm in the test time was used as an index of anxiety.
Male affective disorder model mice aged 8-11 weeks were allowed to freely drink water containing 600 mg/L of lithium for 10 consecutive days.
The affective disorder model mice orally administered with lithium were subjected to affective disorder evaluation system 1 (elevated plus maze test) to evaluate amelioration of affective disorder (mania).

PKCγ activity inhibitory action [1]	Structure (SMILES)	ratio of the residence time in the open arm [2]
observed	O=c1cc(-c2ccc(O)cc2)oc2cc(O)cc(O)c12 [apigenin]	
observed	O=C(O)[C@H]1O[C@@H](Oc2cc3oc(-c4ccccc4)cc(=O)c3c(O)c2O)[C@H](O)[C@@H](O)[C@@H]1O [baicalin]	
	[Li] [lithium]	about 30%

Structure (SMILES)	PKCγ activity inhibitory action [1]	ratio of the residence time in the open arm [2]
O=c1cc(-c2ccc(O)c(O)c2)oc2cc(O)cc(O)c12 [luteolin]	observed	
